Reference: the supplement of paper PMC10307832

Legend:
Assay in all cases: relative viability (nuclei count vs DMSO), 5 days (fraction); higher = more cells survive
[1] = compound: C1=CC=C(C(=C1)C2=CC=C(C=C2)C3=CSC4=C3C(=C(C(=O)N4)C#N)O)O + CC(=O)Nc1cccc(-n2c(=O)n(C3CC3)c(=O)c3c(Nc4ccc(I)cc4F)n(C)c(=O)c(C)c32)c1 [Trametinib] (partner 0.02 µM)
Method in brief: (§1)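 Lung cancer cell lines were pin-tool dosed in 1536-well plates on the day after seeding, with either a lone drug or a fixed anchor-drug dose plus five library-drug doses (not always all listed) in √10 steps. Nuclei were counted on 4× images after 5 days. Relative viability is the ratio of treated-well to vehicle-well nuclei counts, with each value a median of duplicate plates.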

[2] = compound: CC1=CN2C(=O)C=C(N=C2C(=C1)C(C)NC3=CC=CC=C3)N4CCOCC4 [TGX 221] + CC(=O)Nc1cccc(-n2c(=O)n(C3CC3)c(=O)c3c(Nc4ccc(I)cc4F)n(C)c(=O)c(C)c32)c1 [Trametinib] (partner 0.02 µM)
Method in brief: as §1

[3] = compound: O=C(CCCCCCNC(=O)c1cnc(N(c2ccccc2)c2ccccc2)nc1)NO [Ricolinostat] + NC(=O)Nc1cc(-c2cccc(F)c2)sc1C(=O)N[C@H]1CCCNC1 [AZD7762] (partner 0.2 µM)
Method in brief: as §1

[4] = compound: O=C(CCCCCCNC(=O)c1cnc(N(c2ccccc2)c2ccccc2)nc1)NO [Ricolinostat] + O=C(c1cc(Cc2n[nH]c(=O)c3ccccc23)ccc1F)N1CCN(C(=O)C2CC2)CC1 [Olaparib] (partner 8 µM)
Method in brief: as §1

| Cell Line | relative viability ([1]; first compound 0.08 µM) | relative viability ([1]; first compound 0.253 µM) | relative viability ([1]; first compound 0.8 µM) | relative viability ([1]; first compound 2.53 µM) | relative viability ([1]; first compound 8 µM) | relative viability ([2]; first compound 0.08 µM) | relative viability ([2]; first compound 0.253 µM) | relative viability ([2]; first compound 0.8 µM) | relative viability ([2]; first compound 2.53 µM) | relative viability ([2]; first compound 8 µM) | relative viability ([3]; first compound 0.08 µM) | relative viability ([3]; first compound 0.253 µM) | relative viability ([3]; first compound 0.8 µM) | relative viability ([3]; first compound 2.53 µM) | relative viability ([4]; first compound 0.08 µM) | relative viability ([4]; first compound 0.253 µM) | relative viability ([4]; first compound 0.8 µM) | relative viability ([4]; first compound 2.53 µM) |
| --- | --- | --- | --- | --- | --- | --- | --- | --- | --- | --- | --- | --- | --- | --- | --- | --- | --- | --- |
| NCI-H23 | 0.333 | 0.321 | 0.383 | 0.379 | 0.261 | 0.279 | 0.329 | 0.338 | 0.403 | 0.328 | 0.332 | 0.281 | 0.223 | 0.154 | 0.351 | 0.278 | 0.27 | 0.275 |
| NCI-H1437 | 0.485 | 0.606 | 0.534 | 0.518 | 0.298 | 0.462 | 0.448 | 0.437 | 0.38 | 0.415 | 1.12 | 0.977 | 1.16 | 1.01 | 0.628 | 0.595 | 0.598 | 0.409 |
| EKVX | 0.358 | 0.436 | 0.462 | 0.378 | 0.318 | 0.3 | 0.322 | 0.291 | 0.273 | 0.304 | 0.673 | 0.732 | 0.654 | 0.487 | 0.638 | 0.897 | 0.853 | 0.836 |
| HARA | 0.689 | 0.705 | 0.959 | 0.659 | 0.554 | 0.722 | 0.655 | 0.715 | 0.614 | 0.429 | 0.35 | 0.256 | 0.184 | 0.236 | 0.855 | 0.889 | 0.29 | 0.482 |
| ChaGo-K-1 | 0.94 | 0.905 | 0.935 | 1.01 | 0.857 | 0.952 | 0.871 | 0.857 | 0.922 | 0.843 | 0.842 | 0.901 | 0.862 | 0.798 | 0.464 | 0.395 | 0.364 | 0.324 |
| HCC-366 | – | 0.385 | 0.363 | 0.439 | 0.314 | 0.288 | 0.325 | 0.311 | 0.235 | 0.239 | 0.266 | 0.27 | 0.264 | 0.172 | 0.272 | 0.309 | 0.277 | 0.212 |
| SW 900 | – | 1.06 | 0.947 | 0.762 | 0.646 | – | 0.613 | 0.871 | 0.575 | 0.5 | 0.632 | 0.534 | 0.513 | 0.369 | 0.845 | 0.836 | 0.853 | 0.621 |
| HCC-827 | 0.538 | 0.368 | 0.538 | 0.535 | 0.536 | 0.556 | 0.473 | 0.478 | 0.44 | 0.493 | 0.171 | 0.223 | 0.167 | 0.219 | 0.553 | 0.634 | 0.593 | 0.617 |
| EMC-BAC-2 | 0.942 | – | 0.889 | 0.892 | 0.913 | 0.826 | 1.02 | 0.897 | 0.864 | 0.792 | 1.01 | 1.03 | 0.968 | 0.557 | 0.52 | 0.442 | 0.393 | 0.347 |
| NCI-H1993 | 0.479 | 0.502 | 0.495 | 0.565 | 0.542 | 0.797 | 0.508 | 0.526 | 0.507 | 0.529 | 0.53 | 0.884 | 0.55 | 0.459 | 0.883 | 0.875 | 1.02 | 0.892 |
| NCI-H522 | 1 | 0.784 | 0.827 | 0.687 | 0.718 | 0.658 | 0.822 | 0.719 | 0.623 | 0.661 | 0.877 | 0.838 | 0.853 | 0.822 | 0.61 | 0.651 | 0.606 | 0.676 |
| NCI-H596 | 0.73 | 0.827 | 0.891 | 0.695 | 0.747 | 0.654 | 0.807 | 0.82 | 0.908 | 0.774 | 0.965 | 1.12 | 1.08 | 0.686 | 0.699 | 0.676 | 0.693 | 0.526 |
| LK-2 | 0.594 | 0.609 | 0.95 | 0.745 | 0.598 | 0.725 | 0.716 | 0.847 | 0.823 | 0.749 | 0.254 | 0.375 | 0.38 | 0.348 | 0.623 | 0.687 | 0.691 | 0.575 |
| NCI-H650 | 1.11 | 1.01 | 0.991 | 1.02 | 0.987 | 0.932 | 0.894 | 0.974 | 0.908 | 0.861 | 0.706 | 0.993 | 0.849 | 0.579 | 0.376 | 0.34 | 0.278 | 0.22 |
| NCI-H322M | 0.501 | 0.464 | 0.548 | 0.539 | 0.503 | 0.47 | 0.488 | 0.508 | 0.504 | 0.5 | 0.432 | 0.663 | 0.512 | 0.49 | 0.664 | 0.879 | 0.807 | 0.907 |
| HCC-78 | 0.916 | 1.27 | 0.972 | 0.728 | 0.628 | 0.735 | 0.586 | 0.757 | 0.551 | 0.469 | – | 0.718 | 0.453 | 0.2 | – | 0.788 | 0.735 | 0.448 |
| NCI-H1395 | – | 1.02 | 0.974 | 0.938 | 1.01 | 0.93 | 0.935 | 0.831 | 0.767 | 0.761 | – | 0.362 | 0.395 | 0.37 | – | 0.44 | 0.479 | 0.433 |
| NCI-H1648 | – | 0.487 | 0.61 | 0.546 | 0.353 | – | 0.403 | 0.569 | 0.435 | 0.471 | – | 0.651 | 0.524 | 0.494 | – | 0.817 | 0.407 | 0.4 |
| LXF-289 | 0.682 | 0.695 | 0.656 | 0.722 | 0.755 | 0.67 | 0.757 | 0.708 | 0.674 | 0.744 | 1.07 | 1.07 | 1.11 | 1.06 | 1.04 | 1.12 | 1.04 | 1.01 |
